Results: patent US11446298B2, “Pyrimidine derivatives” (Idorsia Pharmaceuticals Ltd, priority 2017, dated 2022)

Assays:
Format in all cases: cell-based
PTGER2 (EP2) = target: T1, PTGER2 (EP2) (Homo sapiens, UniProt P43116); experiment: hEP2 b-Arrestin Assay (PathHunter HEK 293 PTGER2 b-arrestin cells, PGE2 5 μM); details: antagonistic activity, beta-arrestin assay, HEK 293 PTGER2 cells, PGE2 5 μM (EC80); read-out: hEP2 b-arr IC50
T1 construct: host or cells: HEK 293 (PathHunter, stably transfected)
T1 sequence (P43116 whole entry): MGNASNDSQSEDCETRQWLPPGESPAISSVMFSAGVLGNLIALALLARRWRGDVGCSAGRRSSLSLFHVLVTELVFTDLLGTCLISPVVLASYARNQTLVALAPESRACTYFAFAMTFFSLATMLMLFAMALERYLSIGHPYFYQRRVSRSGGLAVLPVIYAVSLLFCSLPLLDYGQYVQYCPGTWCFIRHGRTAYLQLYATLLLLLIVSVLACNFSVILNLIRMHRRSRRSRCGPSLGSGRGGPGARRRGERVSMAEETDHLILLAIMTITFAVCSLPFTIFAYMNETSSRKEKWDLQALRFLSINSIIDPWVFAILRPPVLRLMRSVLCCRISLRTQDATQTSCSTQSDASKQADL
Summary of the method: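 PathHunter enzyme-fragment complementation in HEK 293 cells: compounds (10 μM-2 nM or 1 μM-0.2 nM) pre-incubated 15 min at 37 °C, then 5 μM PGE2 (EC80) for 120 min at 37 °C. Chemiluminescence read after 1 h detection; IC50 from duplicate dose-response fits, means of repeats.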

PTGER4 (EP4) = target: T2, PTGER4 (EP4) (Homo sapiens, UniProt P35408); experiment: hEP4 b-Arrestin Assay (PathHunter HEK 293 PTGER4 b-arrestin cells, PGE2 20 nM); details: antagonistic activity, beta-arrestin assay, HEK 293 PTGER4 cells, PGE2 20 nM (EC80); read-out: hEP4 b-arr IC50
T2 construct: host or cells: HEK 293 (PathHunter, stably transfected)
T2 sequence (P35408 whole entry): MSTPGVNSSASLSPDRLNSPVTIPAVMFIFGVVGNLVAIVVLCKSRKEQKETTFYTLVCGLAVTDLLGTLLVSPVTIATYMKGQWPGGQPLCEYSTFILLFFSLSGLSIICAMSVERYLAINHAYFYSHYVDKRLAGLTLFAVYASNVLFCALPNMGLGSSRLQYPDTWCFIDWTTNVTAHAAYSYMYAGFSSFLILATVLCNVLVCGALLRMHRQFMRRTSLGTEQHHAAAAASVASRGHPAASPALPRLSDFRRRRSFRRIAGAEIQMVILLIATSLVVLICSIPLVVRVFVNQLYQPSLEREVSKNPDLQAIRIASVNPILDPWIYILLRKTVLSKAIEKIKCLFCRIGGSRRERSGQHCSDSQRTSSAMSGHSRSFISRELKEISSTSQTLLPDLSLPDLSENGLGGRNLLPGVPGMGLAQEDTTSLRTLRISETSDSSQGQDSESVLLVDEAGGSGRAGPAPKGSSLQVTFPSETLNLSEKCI
Description: The antagonistic activities of the compounds of formula (I) on the EP2 and EP4 receptors are also determined in accordance with the following experimental method.
The assay is using the PathHunter™ HEK 293 PTGER2 and PTGER4 b-arrestin cell lines from DiscoverX. The system is based on the Enzyme Fragment Complementation Technology. Two complementing fragments of the b-galactosidase enzyme are expressed within stably transfected cells. The larger portion of b-gal, termed EA for Enzyme Acceptor, is fused to the C-terminus of b-arrestin 2. The smaller fragment, termed ProLink™ tag, is fused to PTGER2 (EP2) or PTRGER4 (EP4) at the C-terminus. Upon activation, b-arrestin is recruited which forces the interaction of ProLink and EA, allowing complementation of the two fragments of b-gal and the formation of a functional enzyme which is capable of hydrolysing the substrate and generating a chemiluminescent signal.
The HEK 293 PTGER4 b-arrestin cells (DiscoverX 93-030-4C1) are detached from culture dishes with a cell dissociation buffer (Invitrogen, 13151-014), and collected in growing medium (GM: DMEM+Glutamax-I (Invitrogen 32430)/10% FCS, 1% Penicilin/streptomycin). 5000 cells per well of a 384 well plate (white with white bottom Greiner 781080) are seeded in 20 ul per well of GM. Plate is incubated at 37° C., 5% CO2 for 24 hours.
Stock solutions of test compounds are made at a concentration of 10 mM in DMSO, and serially diluted in DMSO to concentrations required for inhibition dose response curves (tested concentration range 10 μM-2 nM or 1 μM-0.2 nM).
PGE2 (Cayman 14010, stock solution: 100 μM in DMSO) is used as agonist at 20 nM final concentration, corresponding to EC80.
Five microliters of diluted compounds are transferred into the assay plate. Plate is pre-incubated 15 minutes at 37° C. Then five microliters of PGE2 (final conc. 20 nM) are transferred into the assay plate. Plate is incubated 120 minutes at 37° C.
PathHunter Glo Detection Kit components are thawed and mix according to manufacturer's instructions: 1 part Galacton Star Substrate with 5 parts Emerald II™ Solution, and 19 parts of PathHunter Cell Assay Buffer, respectively. Twelve μl of reagent are transferred to the assay plate and incubate for 1 hour at room temperature in the dark. Luminescence counts are read on a BMG Fluostar Optima reader according to manufacturer's instructions.
For each compound concentration calculate of the percentage of activity compared to DMSO control value as average ±STDEV. (each concentration is measured in duplicate)
IC50 values and curves are generated with XLfit software (IDBS) using Dose-Response One Site model 203. When compounds were measured multiple times, mean values are given.

EP4 = target: T3, EP4 (Homo sapiens, UniProt P35408); experiment: hEP4 cAMP Assay (BT549 breast cancer cells, HTRF cAMP, PGE2 6 nM); details: antagonistic activity, PGE2 6 nM (EC80)
T3 construct: BT549 breast cancer cells, express high endogenous EP4 levels and very low EP2 levels; host or cells: BT549 breast cancer cells
T3 sequence (P35408 whole entry): as above
Summary of the method: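 BT549 cells (endogenous EP4, very low EP2) in HBSS/20 mM HEPES/0.2% BSA/2 mM IBMX, pre-incubated 45 min RT with compound, then stimulated 30 min RT with PGE2 6 nM (EC80). cAMP read by HTRF competitive immunoassay (665/620 nm), converted via calibrator to % of DMSO control; IC50 from duplicate dose-response curves.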

EP2 = target: T4, EP2 (Homo sapiens, UniProt P43116); experiment: hEP2 cAMP Assay (SF295 glioblastoma cells, HTRF cAMP, PGE2 75 nM); details: antagonistic activity, PGE2 75 nM (EC80)
T4 construct: SF295 glioblastoma cells express high endogenous EP2 and no EP4; host or cells: SF295 glioblastoma cells
T4 sequence (P43116 whole entry): as the sequence (P43116 whole entry) above
Summary of the method: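 IC50 values derive from duplicate-point curves of percent cAMP relative to DMSO, read by HTRF (665/620 nm) against a cAMP calibrator. Compounds (30 μM to 0.01 nM ranges) were given 45 min at room temperature before 30 min with 75 nM PGE2, in EP2-only SF295 cells with 2 mM IBMX.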

SMILES	IC50 (PTGER2 (EP2))	IC50 (PTGER4 (EP4))	IC50 (EP4)	IC50 (EP2)
CCOc1cc(-c2cc(NCCc3cccc4cccnc34)ncn2)sc1C(=O)O [Example 23, 3-Ethoxy-5-[6-(2-quinolin-8-yl-ethylamino)-pyrimidin-4-yl}-thiophene-2-carboxylic acid]	303 nM	293 nM	239 nM	248 nM
CCOc1cc(-c2cc(NCCc3c(OC(C)C)ccc4ccccc34)ncn2)sc1C(=O)O [Example 30, 3-Ethoxy-5-{6-[2-(2-isopropoxy-naphthalen-1-yl)-ethylamino]-pyrimidin-4-yl}-thiophene-2-carboxylic acid]	115 nM	83 nM	61 nM	23 nM
COc1ccc2ccccc2c1CCNc1cc(-c2ccc(C(=O)O)c(OCCO)c2)ncn1 [Example 155, 2-(2-Hydroxy-ethoxy)-4-{6-[2-(2-methoxy-naphthalen-1-yl)-ethylamino]-pyrimidin-4-yl}-benzoic acid]	45 nM	2230 nM	296 nM	16 nM
CCOc1cc(-c2cc(NCCc3c(C#N)ccc4c(OC)ccc(F)c34)ncn2)sc1C(=O)O [Example 158, 5-{6-[2-(2-Cyano-8-fluoro-5-methoxy-naphthalen-1-yl)-ethylamino]-pyrimidin-4-yl}-3-ethoxy-thiophene-2-carboxylic acid]	126 nM	3 nM	3 nM	286 nM
CCOc1cc(-c2cc(NCCc3ccc(OC)c4ccccc34)ncn2)sc1-c1noc(=O)[nH]1 [Example 141, 3-(3-Ethoxy-5-{6-[2-(4-methoxy-naphthalen-1-yl)-ethylamino]-pyrimidin-4-yl}-thiophen-2-yl)-[1,2,4]oxadiazol-5(4H)-one]	61 nM	4 nM	17 nM	72 nM
CSc1cc(-c2cc(NCCc3ccc(Br)c4ccccc34)ncn2)ccc1C(=O)O [Example 171, 4-{6-[2-(4-Bromo-naphthalen-1-yl)-ethylamino]-pyrimidin-4-yl}-2-methylsulfanyl-benzoic acid]	68 nM	149 nM	130 nM	88 nM
CCOc1cc(-c2cc(NCCc3cccc4ccccc34)ncn2)ccc1C(=O)O [Example 6, 2-Ethoxy-4-[6-(2-naphthalen-1-yl-ethylamino)-pyrimidin-4-yl]-benzoic acid]	85 nM	1690 nM	910 nM	95 nM
COc1ccc2ccc(F)c(CCNc3cc(-c4cc(C(F)(F)F)c(C(=O)O)s4)ncn3)c2n1 [Example 151, 5-{6-[2-(7-Fluoro-2-methoxy-quinolin-8-yl)-ethylamino]-pyrimidin-4-yl}-3-trifluoromethyl-thiophene-2-carboxylic acid]	414 nM	478 nM	228 nM	214 nM
CCOc1cc(-c2cc(NCCc3ccc(F)c4ccccc34)ncn2)sc1C(=O)O [Example 21, 3-Ethoxy-5-{6-[2-(4-fluoro-naphthalen-1-yl)-ethylamino]-pyrimidin-4-yl}-thiophene-2-carboxylic acid]	32 nM	77 nM	62 nM	16 nM
COc1ccc2ccn(C)c2c1CCNc1cc(-c2ccc(C(=O)O)c(SC)c2)ncn1 [Example 168, 4-{6-[2-(6-Methoxy-1-methyl-1H-indol-7-yl)-ethylamino]-pyrimidin-4-yl}-2-methylsulfanyl-benzoic acid]	93 nM	108 nM		

These reach a lower IC50 (PTGER2 (EP2)). Values come first.

IC50 (PTGER2 (EP2))	IC50 (PTGER4 (EP4))	IC50 (EP4)	IC50 (EP2)	SMILES
20 nM	264 nM	548 nM	27 nM	CCc1nc(-c2cc(NCCc3c(OC)ccc4ccccc34)ncn2)sc1C(=O)O [Example 148, 4-Ethyl-2-{6-[2-(2-methoxy-naphthalen-1-yl)-ethylamino]-pyrimidin-4-yl}-thiazole-5-carboxylic Acid]
27 nM	375 nM	330 nM	48 nM	CCOc1cc(-c2cc(NCCc3cccc4c(C)cccc34)ncn2)ccc1C(=O)O [Example 184, 2-Ethoxy-4-{6-[2-(5-methyl-naphthalen-1-yl)-ethylamino]-pyrimidin-4-yl}-benzoic acid]
5 nM	34 nM	43 nM	20 nM	CCOc1cc(-c2cc(NCCc3c(OC)ccc4ccccc34)ncn2)ccc1-c1noc(=O)[nH]1 [Example 126, 3-(2-Ethoxy-4-{6-[2-(2-methoxy-naphthalen-1-yl)-ethylamino]-pyrimidin-4-yl}-phenyl)-4H-[1,2,4]oxadiazol-5-one]
2 nM	20 nM	15 nM	2 nM	CCOc1cc(-c2cc(NCCc3c(OC)ccc4ccccc34)ncn2)sc1C(=O)O [Example 4, 3-Ethoxy-5-{6-[2-(2-methoxy-naphthalen-1-yl)-ethylamino]-pyrimidin-4-yl}-thiophene-2-carboxylic acid]
18 nM	78 nM	75 nM	15 nM	CCOc1cc(-c2cc(NCCc3c(OC)ccc4ncccc34)ncn2)sc1C(=O)O [Example 65, 3-Ethoxy-5-{6-[2-(6-methoxy-quinolin-5-yl)-ethylamino]-pyrimidin-4-yl}-thiophene-2-carboxylic acid]
30 nM	20 nM	40 nM	71 nM	CCOc1cc(-c2cc(NCCc3cccc4cnccc34)ncn2)sc1-c1noc(=O)[nH]1 [Example 144, 3-{3-Ethoxy-5-[6-(2-isoquinolin-5-yl-ethylamino)-pyrimidin-4-yl]-thiophen-2-yl}-[1,2,4]oxadiazol-5(4H)-one]
5 nM	177 nM	47 nM	4 nM	CCOc1cc(-c2cc(NCCc3c(C)ccc4ccccc34)ncn2)sc1C(=O)O [Example 1, 3-Ethoxy-5-{6-[2-(2-methyl-naphthalen-1-yl)-ethylamino]-pyrimidin-4-yl}-thiophene-2-carboxylic acid]
11 nM	56 nM	14 nM	9 nM	CCOc1cc(-c2cc(NCCc3cccc4ccccc34)ncn2)sc1C(=O)O [Example 9, 3-Ethoxy-5-[6-(2-naphthalen-1-yl-ethylamino)-pyrimidin-4-yl]-thiophene-2-carboxylic acid]
28 nM	17 nM	24 nM	77 nM	CCOc1cc(-c2cc(NCCc3c(OC)c(OC)cc4ccccc34)ncn2)sc1C(=O)O [Example 14, 5-{6-[2-(2,3-Dimethoxy-naphthalen-1-yl)-ethylamino]-pyrimidin-4-yl}-3-ethoxy-thiophene-2-carboxylic acid]
16 nM	75 nM	206 nM	88 nM	CCOc1cc(-c2cc(NCCc3c(OC)ccc4ccccc34)ncn2)ccc1OCCC(=O)O [Example 120, 3-(2-Ethoxy-4-{6-[2-(2-methoxy-naphthalen-1-yl)-ethylamino]-pyrimidin-4-yl}-phenoxy)-propionic acid]
